Source: US11617748B2, “Meclozine derivatives and diclazuril derivatives for use in the prevention and/or the treatment of disorders associated to the inflammation induced by P. acnes” (priority 2016, dated 2023)
Counter-ions that a name gives are not always drawn.

Experiments:
Assay type in all cases: cell-based, human
IL-8 production [1] = experiment: P. acnes-induced IL-8 production in HaCaT keratinocytes (ELISA); settings: for decrease of IL-8 production at 6.25 μM / Dose-dependent inhibition of IL-8 production by keratinocytes stimulated by P. acnes pre-treated with meclozine analogues: 24 h pre-treatment; for decrease of IL-8 production at 6.25 μM: comparison with acne drugs (FIG. 8A); for effect on IL-8 production at 6.25 μM, in words: 24 h pre-treatment (FIG. 8A); for Dose-dependent inhibition of IL-8 production by keratinocytes stimulated by P. acnes pre-treated with meclozine analogues: 10 μM
Procedure: Bacterial strain and conditions of growth. P. acnes strain 6919 was obtained from the American Type Culture Collection (Manassas, Va.) and P. acnes strains RON and PIE were isolated from patient with joint infection. All strains were grown under anaerobic conditions in reinforced clostridial liquid and solid medium (RCM) (Difco Laboratories, Detroit, Mich.). P. acnes was transferred from the bacterial stock onto RCM agar plate and incubated for 5 days under anaerobic condition by using a GasPak™ EZ Anaerobic Container System (Becton Dickinson & Co, Sparks Md., USA). A single colony was transferred into 100 ml RCM and grown as described above. Bacterial suspension was then store frozen at −80° C. in presence of 10% glycerol final. This stock was called «start stock» and used for all the experiments. For routine culture, 100 ml of RCM was used and bacteria were harvested after 5 days at 37° C. by centrifugation at 7,000×g for 10 min at 4° C. Pellets were pooled and washed in about 30 ml of cold sterile PBS [1.5 mM KH2PO4, 2.7 mM Na2HPO4.7H2O, 0.15 M NaCl (pH 7.4)] and centrifuged again as described above. Finally, the bacterial pellet was suspended in sterile PBS (1:10 from volume culture).
(§1) Cell culture, pretreatment and stimulation. The immortalized human keratinocyte cell line HaCaT, fibroblast MRC5 were grown in Dulbecco's modified Eagle's medium-Glutamax-I (DMEM) with 1 mM sodium pyruvate. The immortalized human monocytic cell line ThP1 was grown in Roswell Park Memorial Institute 1640 Medium-Glutamax-I (RPMI). DMEM and RPMI were supplemented with 0.1% and 10% heat-inactivated fetal calf serum (Invitrogen), and an antibiotic/antimycotic solution (10 U/ml Pencillin, 10 μg/ml Streptomycin, 0.25 μg/ml Amphoterin) at 37° C. in humidified atmosphere containing 5% CO2 as described (Life Technologie). Primary human keratinocytes (NHDK) and fibroblast (HDF) were grown in the KGM-Gold and in FGM-2 Bullet Kit, respectively, as described by the manufacturer (Lonza). The immortalized cell lines were routinely tested to assess the absence of Mycoplasma infection. Cells, cultivated in 6- or 96-well polystyrene plates, were pretreated with appropriate molecule solution for 1 to 48 h at 37° C. in the dark at the appropriate concentration. Then, for stimulation, cells were incubated for 15 min to 24 h with the P. acnes suspension adjusted at the appropriate concentration at 37° C. in 5% CO2. For experiences using an in vitro model of psoriasis, the primary human keratinocytes (NHDK) were grown in culture medium for 24 hours. The medium was removed and replaced with culture medium containing meclozine, diclazuril and JAK inhibitor (used as positive control) at the concentrations of 0.39, 0.78, 1.56, 3.12, 6.25 and 12.5 μM and the pro-inflammatory mixture M5 (combination of IL-17A, OSM, TNF-α, IL-22, IL-1α at 10 ng/ml) was added to the cells followed by an incubation for 48 or 72 hours.
(§2) ELISA. Human IL-1β, IL-8, hBD-2 and TNF-α protein concentration were measured in the supernatants of stimulated cells using various ELISA Sets (all from Ready-Set-Go from eBioscience, except hBD-2 measurements: Human DEFB4A/BD-2 ELISA Kit from LSBio) according to the manufacturer's instructions. We used serial dilutions of recombinant human IL-1β, IL-8, hBD-2 and TNF-α for standard curve. The optical density was determined at 450 nm at a wavelength correction of 540 nm.
Both molecules, diclazuril and meclozine, were purchased separately from Sigma and tested independently on immortalized keratinocytes HaCaT cell for their capacity to inhibit the IL-8 production in a dose-dependent manner. HaCaT cells were pre-treated with diclazuril and meclozine, at the concentrations ranging from 0.39 to 50 μM, for 24 h and then stimulated with P. acnes suspension as described in Materials and Methods. The production of IL-8 was measured on culture supernatant by ELISA and the viability of cells was estimated by MTT assay (FIG. 1).

HaCaT cells = experiment: MTT cell viability assay on HaCaT keratinocytes; settings: for Evaluation of cell viability after treatment with meclozine analogues on keratinocytes: 10 μM, 24 h
Procedure: as §1, with “The immortalized human monocytic cell line ThP1 was grown in Roswell Park Memorial Institute 1640 Medium-Glutamax-I (RPMI).” left out, “hours.” for “hours. The medium was removed and replaced with culture medium containing meclozine, diclazuril and JAK inhibitor (used as positive control) at the concentrations of 0.39, 0.78, 1.56, 3.12, 6.25 and 12.5 μM and the pro-inflammatory mixture M5 (combination of IL-17A, OSM, TNF-α, IL-22, IL-1α at 10 ng/ml) was added to the cells followed by an incubation for 48 or 72 hours.”
Cell viability assays. Viability of cells was estimated by using the MTT assay where cells were incubated with a 0.2% MTT solution in cell culture medium for 4 h at 37° C. The MTT solution was then discarded and DMSO added to solubilize the MTT-formazan cristals produced in living cells. After thorough mixing, the absorbance was measured at 540 nm.

IL-8 production [2] = experiment: P. acnes-induced IL-8 production in HaCaT keratinocytes (ELISA); settings: HaCaT cells pre-treated 24 h, no P. acnes stimulation
IL-8 production [3] = experiment: IL-8 production by M5-stimulated NHDK, in vitro psoriasis-like model (ELISA); settings: NHDK + M5, 48 h, JAK inhibitor at 6.25 μM (positive control)
Procedure: (§3) Cell culture, pretreatment and stimulation.
as §2

hBD-2 production = hBD-2 production by M5-stimulated NHDK, in vitro psoriasis-like model (ELISA); settings: NHDK + M5, 48 h, JAK inhibitor at 6.25 μM (positive control)
Procedure: as §3, §2

COc1ccc(-c2ccc3cc(C(=O)O)ccc3c2)cc1C12CC3CC(CC(C3)C1)C2 [adapalene]
decrease of IL-8 production at 6.25 μM (IL-8 production [1]; HaCaT): 20% | IL-8 reduction at 12.5 μM (IL-8 production [1]; HaCaT, 12.5 μM, 24 h pre-treatment (FIG. 8B)): 90%

O=C(OOC(=O)c1ccccc1)c1ccccc1 [benzoyl peroxide]
toxicity at 6.25 μM, in words (MTT) (HaCaT cells; HaCaT, 6.25 μM, 24 h pre-treatment (FIG. 8A)): no toxicity | effect on IL-8 production at 6.25 μM, in words (IL-8 production [1]; HaCaT): very low none significative or no effect

Cc1cc(-n2ncc(=O)[nH]c2=O)cc(Cl)c1Sc1ccc(Cl)cc1 [RCL PH000645-PH, PH000645-PH]
IL-8 production in pretreated cells without being stimulated (IL-8 production [2]): no change | IC50 (IL-8 production [1]; Homo sapiens, HaCaT cells pre-treated 24 h, then stimulated with P. acnes, read-out: IC50 of inhibition of IL-8 production): ~3000 nM

COc1ccc(CN2CCN(C(c3ccc(F)cc3)c3ccc(F)cc3)CC2)c(OC)c1OC [Lomerizine]
Evaluation of cell viability after treatment with meclozine analogues on keratinocytes (HaCaT cells; HaCaT, MTT): 95% | Dose-dependent inhibition of IL-8 production by keratinocytes stimulated by P. acnes pre-treated with meclozine analogues (IL-8 production [1]; HaCaT): 58%

Cc1cccc(C)c1NC(=O)CN1CCN(CCCC(c2ccc(F)cc2)c2ccc(F)cc2)CC1 [Lidoflazine]
Evaluation of cell viability after treatment with meclozine analogues on keratinocytes (HaCaT cells; human): 107% | Dose-dependent inhibition of IL-8 production by keratinocytes stimulated by P. acnes pre-treated with meclozine analogues (IL-8 production [1]; HaCaT): 65%

Fc1ccc(C(OCCN2CCN(CCCc3ccccc3)CC2)c2ccc(F)cc2)cc1 [GBR 12909 dihydrochloride]
Evaluation of cell viability after treatment with meclozine analogues on keratinocytes (HaCaT cells; human): 78% | Dose-dependent inhibition of IL-8 production by keratinocytes stimulated by P. acnes pre-treated with meclozine analogues (IL-8 production [1]; HaCaT): 78%

CC[C@H]1OC(=O)[C@H](C)[C@@H](O[C@H]2C[C@@](C)(OC)[C@@H](O)[C@H](C)O2)[C@H](C)[C@@H](O[C@@H]2O[C@H](C)C[C@H](N(C)C)[C@H]2O)[C@](C)(O)C[C@@H](C)C(=O)[C@H](C)[C@@H](O)[C@]1(C)O [erythromycine]
effect on IL-8 production at 6.25 μM, in words (IL-8 production [1]; HaCaT): very low none significative or no effect

CN1CCN(C(c2ccccc2)c2ccc(Cl)cc2)CC1 (centres unmarked) [Chlorcyclizine hydrochloride]
Evaluation of cell viability after treatment with meclozine analogues on keratinocytes (HaCaT cells; human): 81% | Dose-dependent inhibition of IL-8 production by keratinocytes stimulated by P. acnes pre-treated with meclozine analogues (IL-8 production [1]; HaCaT): 54%

Jak Inhibitor I
inhibition of M5-stimulated IL-8 production (IL-8 production [3]): 49% | inhibition of stimulated hBD-2 production (hBD-2 production): 38%

CCC[C@@H]1C[C@@H](C(=O)N[C@@H]([C@H]2O[C@H](SC)[C@H](O)[C@@H](O)[C@H]2O)[C@H](C)Cl)N(C)C1 [clindamycine]
effect on IL-8 production at 6.25 μM, in words (IL-8 production [1]; HaCaT): very low none significative or no effect

CC1=C(/C=C/C(C)=C/C=C/C(C)=C/C(=O)O)C(C)(C)CCC1 [retinoic acid]
decrease of IL-8 production at 6.25 μM (IL-8 production [1]; HaCaT): 5%

CC1=C(/C=C/C(C)=C/C=C/C(C)=C\C(=O)O)C(C)(C)CCC1 [isotretinoin]
decrease of IL-8 production at 6.25 μM (IL-8 production [1]; HaCaT): 5%
